Measurements from patent US20250187998A1, “IDENTIFICATION OF SOIL BACTERIA-ENRICHING AGENTS AND METHODS OF USE THEREOF” (California Institute of Technology, priority 2023, published 2025).

Experiments:
Bacillus subtilis = assay: Soil competition (soil bacteria-enrichment) assay, qPCR with strain-specific probes; assay type: cell-based; details: 1 g non-sterile agriculture soil, 300 μL exudates, 20 mM target carbon substrate, four species pooled, 72 hours, qPCR (FIG. 23)
Procedure: (§1) In some embodiments, the competition assay comprises adding one or more bacteria of interest to non-sterile agriculture soil at an equal starting OD and incubating the soil with plant root exudate and a desired concentration of candidate soil-bacteria enriching agent. In some embodiments, the non-sterile agriculture soil further comprises one or more plants. Methods of obtaining plant root exudate are known in the art. All such methods are suitable for use in the methods disclosed herein. For example, in some embodiments, plant root exudate is obtained by surface sterilizing Arabidopsis thaliana seeds, sowing the seeds on an agar plate and growing the seeds for 7 days. In some embodiments, after 7 days, the seedlings are transferred to a multi-well plate for exudate collection. In some embodiments, exudate collection comprises adding MS media to each well of the multi-well well plate along with about 50, 7-day old, Arabidopsis seedlings. The seedlings are then incubated with shaking in growth chamber for about 24 hours. After 24 hours, the exudates are collected, pooled, and filter sterilized. In some embodiments, the treated non-sterile agriculture soil is incubated with plant root exudate and a desired concentration of soil bacteria-enriching agent for about 3 days. After 3 days, DNA is extracted from soil and the concentration of the bacteria in the soil is measured. For example, in some embodiments, qPCR analysis is conducted using a universal bacteria primer “ALL” and species-specific primers. The threshold cycle (Ct) value for the universal primer is then subtracted from each of the species-specific primers to get the dCt or ΔCt.
(§2) The ability of the identified compounds to effectively manipulate the soil microbial community was examined using a series of soil bacteria-enrichment experiments. First, the ability of the candidate selective carbon substrates to influence microbial competition was tested using a series of soil competition experiments. 1 g of non-sterile agriculture soil was added to a 2 mL tube along with 300 μL of exudates, 20 mM target carbon substrates and an OD 3.33 of all four species pooled at an equal starting concentration. Tubes were collected after 72 hours and stored in −80° C. before processing. DNA was then extracted and screened using qPCR with probes unique to each strain to determine the abundance of each strain in the mixed community.

Pseudomonas putida [1] = assay: as above; assay type: cell-based; details: 1 g non-sterile agriculture soil, 300 μL exudates, 20 mM target carbon substrate, four species pooled, 72 hours, qPCR (FIG. 24)
Procedure: as §1, §2

Pseudomonas putida [2] = assay: Persistence of P. putida bioinoculant in non-sterile soil over time (qPCR, ΔCt); assay type: cell-based; details: initial density 10^5 cfu/g soil, exudate solution +/- 20 mM PEA, 28° C., sampled every 3 days, qPCR ΔCt (FIG. 25-26)
Procedure: FIG. 25-26 are graphs showing persistence of a P. putida bioinoculant over time. […] Lower ΔCt indicates higher abundance. P. putida was introduced into non-sterile soil at an initial density of 10^5 cfu/g soil in exudate solution +/−20 mM phenylethylamine (PEA) at day 0 and allowed to incubate at 28° C. Two replicates are shown for each condition. Every 3 days, soil was collected, and DNA was extracted to probe the concentration of P. putida using 16S primers. Template DNA for qPCR was normalized to ˜1 ng/reaction.

P. putida KT2440 (PP) = assay: Enrichment of bioinoculant in soil in the presence of plants (bulk soil and root qPCR); assay type: in vivo, Pseudomonas putida; Arabidopsis thaliana seedlings; details: agriculture soil in magenta box, +/- 20 mM phenylethylamine, 10^5 cells per gram of soil, four Arabidopsis seedlings, 1 or 2 weeks
Description: Some embodiments herein are directed to a method of assessing whether a given soil bacteria-enriching agent enriches a specific species of bacteria in a soil microbiome comprising at least one additional bacterial species when one or more plants are being supported by the soil. In some embodiments, the method comprises adding a known concentration of one or more species of bacteria to soil along with a soil bacteria-enriching agent. In some embodiments, the bacteria comprise Pseudomonas putida (PP), Azotobacter vinelandii (AV), Bacillus subtilis (BS), and/or Azospirillum brasilense (AB). In some embodiments, soil moisture at the start of the experiment is adjusted a desired level for growth of the plant. One or more plants are then planted in the treated soil and allowed to grow for about 1, 2, 3, 4, 5, 6, 7, 8, 9, 10, 11, 12, 13, 14, 15, 16, 17, 18, 19, 20, 21, 22, 23, 24, 25, 26, 27, 28, 29, 30, or 31 days or more, or for an amount of time that is in a range that is defined by any two of the preceding values. […] The quantity of one or more species of bacteria in the soil and/or the plant roots is then determined and one or more soil bacteria-enriching agents that uniquely promote the growth and attraction of a desired bacterial species as compared to one or more other bacteria in the soil microbiome are identified. […]

Azospirillum brasilense = assay: Soil competition (soil bacteria-enrichment) assay, qPCR with strain-specific probes; assay type: cell-based; details: 1 g non-sterile agriculture soil, 300 μL exudates, 20 mM target carbon substrate, four species pooled, 72 hours, qPCR (FIG. 21)
Procedure: as §1, §2

SMILES | enrichment of Bacillus subtilis in agricultural soils with a native microbiome (Bacillus subtilis) | enrichment of Pseudomonas putida in agricultural soils with native microbiome (Pseudomonas putida [1]) | also measured
OC[C@H]1O[C@@H](Oc2ccc(O)cc2)[C@H](O)[C@@H](O)[C@@H]1O [arbutin, Arbutin] | can be used to enrich Bacillus subtilis |  | 
CCCCCCCCCC(=O)O [capric acid, Capric acid] |  | can be used to enrich Pseudomonas putida | 
NCCc1ccccc1 [phenylethylamine, Phenylethylamine] |  | can be used to enrich Pseudomonas putida | persistence of Pseudomonas putida in agricultural soil (Pseudomonas putida [2]): persists longer; enrichment of PP in the bulk soil (P. putida KT2440 (PP); qPCR (FIG. 27)): enriched; enrichment of PP on plant root (root colonization) (P. putida KT2440 (PP); root DNA qPCR (FIG. 28)): enriched
CCC(=O)[O-].[Na+] [sodium propionate] |  |  | enrichment of Azospirillum brasilense in agricultural soils with a native microbiome (Azospirillum brasilense): can be used to enrich Azospirillum brasilense
COC1OC(CO)C(O)C(O)C1O [α-methyl d-galactoside, a-Methyl-D-Galactoside] | can be used to enrich Bacillus subtilis |  | 
